Test results taken from patent publication US12005045B2, “Method of modulating TIGIT and PD-1 signalling pathways using 1,2,4-oxadiazole compounds” (AURIGENE ONCOLOGY LIMITED, priority 2018, dated 2024).

Key:
PD-L1 = target: T1, PD-L1 (Mus musculus, UniProt Q9EP73); assay: Rescue of mouse splenocyte proliferation in the presence of recombinant PD-L1 (CFSE proliferation assay); format: cell-based; conditions: 100 nM compound; anti-CD3/CD28 stimulated mouse splenocytes + PD-L1; stimulated splenocytes = 100%; read-out: Percent rescue of splenocyte proliferation at 100 nM PD-L1 based assay
T1 construct: Fc (Fc chimera); purchased R&D Systems 1019-B7-100
Protocol: Recombinant mouse PD-L1 (rm-PDL-1, cat no: 1019-B7-100; R&D Systems) were used as the source of PD-L1.
Mouse splenocytes harvested from 6-8 weeks old C57 BL6 mice; RPMI 1640 (GIBCO, Cat #11875); DMEM with high glucose (GIBCO, Cat #D6429); Fetal Bovine Serum [Hyclone, Cat #SH30071.03]; Penicillin (10000 unit/mL)-Streptomycin (10,000 μg/mL) Liquid (GIBCO, Cat #15140-122); MEM Sodium Pyruvate solution 100 mM (100×), Liquid (GIBCO, Cat #11360); Nonessential amino acid (GIBCO, Cat #11140); L-Glutamine (GIBCO, Cat #25030); Anti-CD3 antibody (eBiosciences—16-0032); Anti-CD28 antibody (eBiosciences—16-0281); ACK lysis buffer (1 mL) (GIBCO, Cat #-A10492); Histopaque (density-1.083 gm/mL) (SIGMA 10831); Trypan blue solution (SIGMA-T8154); 2 mL Norm Ject Luer Lock syringe-(Sigma 2014-12); 40 μm nylon cell strainer (BD FALCON 35230); Hemacytometer (Bright line-SIGMA Z359629); FACS Buffer (PBS/0.1% BSA): Phosphate Buffered Saline (PBS) pH 7.2 (HiMedia TS1006) with 0.1% Bovine Serum Albumin (BSA) (SIGMA A7050) and sodium azide (SIGMA 08591); 5 mM stock solution of CFSE: CFSE stock solution was prepared by diluting lyophilized CFSE with 180 μL of Dimethyl sulfoxide (DMSO C2H6SO, SIGMA-D-5879) and aliquoted in to tubes for further use. Working concentrations were titrated from 10 μM to 1 μM. (eBioscience-650850-85); 0.05% Trypsin and 0.02% EDTA (SIGMA 59417C); 96-well format ELISA plates (Corning CLS3390); BD FACS caliber (E6016); Recombinant mouse B7-H1/PDL1 Fc Chimera, (rm-PD-L1 cat no: 1019-B7-100).
Splenocytes harvested in a 50 mL falcon tube by mashing mouse spleen in a 40 μm cell strainer were further treated with 1 mL ACK lysis buffer for 5 min at room temperature. After washing with 9 mL of RPMI complete media, cells were re-suspended in 3 mL of 1×PBS in a 15 mL tube. 3 mL of Histopaque was added carefully to the bottom of the tube without disturbing overlaying splenocyte suspension. After centrifuging at 800×g for 20 min at room temperature, the opaque layer of splenocytes was collected carefully without disturbing/mixing the layers. Splenocytes were washed twice with cold 1×PBS followed by total cell counting using Trypan Blue exclusion method and used further for cell based assays.
Splenocytes were cultured in RPMI complete media (RPMI+10% fetal bovine serum+1 mM sodium pyruvate+10,000 units/mL penicillin and 10,000 μg/mL streptomycin) and maintained in a CO2 incubator with 5% CO2 at 37° C.
CFSE is a dye that passively diffuses into cells and binds to intracellular proteins. 1×10^6 cells/mL of harvested splenocytes were treated with 5 μM of CFSE in pre-warmed 1×PBS/0.1% BSA solution for 10 min at 37° C. Excess CFSE was quenched using 5 volumes of ice-cold culture media to the cells and incubated on ice for 5 min. CFSE labelled splenocytes were further given three washes with ice cold complete RPMI media. CFSE labelled 1×10^5 splenocytes added to wells containing either MDA-MB231 cells (1×10^5 cells cultured in high glucose DMEM medium) or recombinant human PDL-1 (100 ng/mL) and test compounds. Splenocytes were stimulated with anti-mouse CD3 and anti-mouse CD28 antibody (1 μg/mL each), and the culture was further incubated for 72 h at 37° C. with 5% CO2. Cells were harvested and washed thrice with ice cold FACS buffer and % proliferation was analysed by flow cytometry with 488 nm excitation and 521 nm emission filters.
Percent splenocyte proliferation was analysed using cell quest FACS program and percent rescue of splenocyte proliferation by compound was estimated after deduction of % background proliferation value and normalising to % stimulated splenocyte proliferation (positive control) as 100%. • Stimulated splenocytes: Splenocytes+anti-CD3/CD28 stimulation • Background proliferation: Splenocytes+anti-CD3/CD28+PD-L1 • Compound proliferation: Splenocytes+anti-CD3/CD28+PD-L1+Compound • Compound effect is examined by adding required conc. of compound to anti-CD3/CD28 stimulated splenocytes in presence of ligand (PDL-1).

mPVR = assay: Rescue of mouse CD8+ T-cell proliferation in the presence of recombinant mPVR (IL-2 ELISA readout); format: cell-based; conditions: mouse CD8+ T cells, anti-CD3 + mouse PVR, anti-TIGIT antibody = 100%; for Percent rescue of CD8+ T-cell proliferation at 100 nM mPVR based assay: 100 nM compound; for Percent rescue of CD8+ T-cell proliferation mPVR based assay: 1000 nM compound
From the text: 96-well plates, Corning; RPMI, Cat No. R6504, Sigma; Easy Sep magnet, Cat No. 18000, Stem Cell; Easy Sep Mouse CD8 T Cell isolation kit, Cat No. 19853, Stem Cell; Corning® cell strainer, (70 μm) Cat No. 431751, Corning; Purified anti-mouse CD3 Abs, Cat No. 100201, Biolegend; Recombinant mouse PVR, Cat No. 6909-CD-050, R&D Systems; Recombinant mouse anti-TIGIT Ab, Cat No. 142101, Biolegend; FBS, Cat No. SH30070.03, Hyclone; Mouse IL-2 ELISA Kit, R&D System Cat no DY402; Mouse IFN-γ ELISA Kit R&D Systems Cat no. DY485; Sterile PBS; FicollHistopaque, Cat No. 10831-6X100ML, Sigma
Spleen was collected from C57BL/6 male mice with 6-8 weeks of age. Splenocytes were isolated by slowly crushing the spleen between the sterile glass slides in RPMI+10% FBS and passing it through the 70 μm strainer. Cell suspension was centrifuged at 912×g for 10 minutes at room temperature and discarded the supernatant. Splenocytes were resuspended in RPMI+10% FBS (Complete RPMI). Resuspended splenocytes were overlaid on Ficoll Histopaque-1083 in a 50 ml Tarson tubes. Overlaid cells were centrifuged at 584×g for 30 minutes at room temperature without break. A clear buffy coat was carefully aspirated into sterile PBS. Isolated cells were washed using PBS and resuspended in complete RPMI medium to get a suspension of about 5×10^7 cells/ml. Mouse CD8^+ T cell were isolated by using EasySep Mouse CD8+ T Cell Isolation kit, as per manufacturers instruction.
96-well cell culture plate was coated with Purified anti-mouse CD3, 1 μg/mL (50 μL/well) and Recombinant Mouse PVR Fe Chimera, 0.5 μg/mL (50 ul/well) for 4 hours at 37° C. After 4 hours, the coated plate was washed with sterile PBS. Mouse CD8+ T cells isolated from spleen were added at 0.2 million/well ([…]) concentration into a 96-well cell culture plate. Test compound at various concentrations prepared in water or DMSO was added in respective wells (20 μL/well) so as to make the total volume 200 μL/well. The plates were incubated in 37° C. CO2 incubator for 3 days. On the 3rd day, cell supernatant was collected to determine cytokine levels (IL-2 or IFN-7) using ELISA. The extent of CD8+ T cell proliferation in presence or absence of test compound was measured by analysing the amount of IL-2 or IFN-7 in the culture supernatants using mouse IL-2 or IFN-7 ELISA kits as per manufacture instructions. Recombinant mouse anti-TIGIT antibody was used as positive control to determine the increased proliferation of CD8+ T cells.
Percent CD8+ T cell proliferation was analysed by measuring IL-2 levels using IL-2 ELISA kit and percent rescue of CD8+ T cell by test compound was estimated after deduction of % background proliferation value and normalising to % stimulated CD8+ T cell proliferation by anti-TIGIT antibody (positive control) as 100%.

[1] = test system: CT26 syngeneic colon adenocarcinoma; assay: Efficacy study in the CT-26 syngeneic (Balb/c male) mouse tumor model; format: in vivo; conditions: 14 days, CT26 tumor bearing mice
Protocol: The objective of this study was to evaluate anti-tumor activity of Compound 19 in a CT26 syngeneic colon adenocarcinoma model.
CT26 cell line was procured from ATCC, maintained and stored at ADTL-Bangalore cell line repository. One vial of CT26 cell line was thawed and revived in T-150 cm^2 flask with RPMI medium supplemented with 10% FBS (Gibco), 10 mM 4-(2-hydroxyethyl)-1-piperazineethanesulfonic acid (HEPES), 1 mM sodium pyruvate, 4.5 g/L Glucose, 1% penicillin streptomycin (Sigma) and 1.5 g/L sodium bicarbonate. The flask with CT26 cells at cell density 0.25 million/ml was incubated at 37±1° C. incubator supplied with 5% carbon dioxide. Cell expansion was carried out in T-150 cm^2 flasks and cell density was maintained between 0.25 […], with cell splitting every alternate day. […] Supernatant was discarded and cell pellets were suspended in media and counted using hemocytometer. […]
When the mean tumor volumes reached approximately 30±5 mm^3, the animals were randomized based on tumor volumes into five groups (G1 to G5) of ten animals (N=10) each as mentioned below. The treatment was continued for a period of 14 days after which the overall efficacy and tolerability were evaluated based on tumor volume and body weight changes observed during the treatment period. […]

T1 sequence (Q9EP73 19-238 limits assumed): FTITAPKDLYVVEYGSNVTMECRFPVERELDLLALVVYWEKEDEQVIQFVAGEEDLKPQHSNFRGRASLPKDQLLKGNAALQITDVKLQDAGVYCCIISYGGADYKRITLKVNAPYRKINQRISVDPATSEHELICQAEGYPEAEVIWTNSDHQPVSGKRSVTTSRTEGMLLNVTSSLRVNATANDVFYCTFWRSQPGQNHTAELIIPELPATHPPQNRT

Compound: N[C@@H](Cc1ccc(O)cc1)c1noc([C@@H]2CCCN2C(=O)N[C@@H](CC(=O)O)C(=O)O)n1 [Compound 1, ((S)-2-(3-((S)-1-amino-2-(4-hydroxyphenyl)ethyl)-1,2,4-oxadiazol-5-yl)pyrrolidine-1-carbonyl)-L-aspartic acid]
- activation at 0.1 µM (PD-L1): 17%
- Percent rescue of CD8+ T-cell proliferation at 100 nM mPVR based assay (mPVR): 98%

Compound: CC(O)[C@H](NC(=O)NCc1nc([C@@H](N)CC(=O)O)no1)C(=O)O (stereo partly shown) [Compound 2]
- activation at 0.1 µM (PD-L1): 84%
- Percent rescue of CD8+ T-cell proliferation at 100 nM mPVR based assay (mPVR): 14%

Compound: CC(O)[C@H](NC(=O)N[C@@H](Cc1ccc(O)cc1)C(=O)O)c1nc([C@@H](N)Cc2c[nH]cn2)no1 (stereo partly shown) [Compound 3]
- activation at 0.1 µM (PD-L1): 11%
- Percent rescue of CD8+ T-cell proliferation at 100 nM mPVR based assay (mPVR): 59%

Compound: N[C@@H](CCC(=O)O)c1noc([C@H](Cc2ccc(O)cc2)NC(=O)N[C@@H](Cc2ccccc2)C(=O)O)n1 [Compound 4]
- activation at 0.1 µM (PD-L1): 22%

Compound: CC(C)[C@H](N)c1noc([C@@H](NC(=O)N[C@@H](CCC(N)=O)C(=O)O)C(C)O)n1 (stereo partly shown) [Compound 5]
- activation at 0.1 µM (PD-L1): 27%
- Percent rescue of CD8+ T-cell proliferation mPVR based assay (mPVR): (17 @ 1000 nM) %

Compound: CCC(C)[C@H](NC(=O)N[C@@H](CS)c1nc([C@@H](N)Cc2ccccc2)no1)C(=O)O (stereo partly shown) [Compound 6]
- activation at 0.1 µM (PD-L1): 15%

Compound: CC(O)[C@H](NC(=O)N[C@@H](Cc1cnc[nH]1)c1nc([C@@H](N)Cc2ccc(O)cc2)no1)C(=O)O (stereo partly shown) [Compound 7]
- activation at 0.1 µM (PD-L1): 39%

Compound: CC(O)[C@H](NC(=O)NCc1nc([C@@H](N)CCC(=O)O)no1)C(=O)O (stereo partly shown) [Compound 8]
- Percent rescue of CD8+ T-cell proliferation at 100 nM mPVR based assay (mPVR): 14.6%

Compound: CC(O)[C@H](N)c1noc([C@@H](NC(=O)N[C@@H](Cc2ccccc2)C(=O)O)C(C)O)n1 (stereo partly shown) [Compound 9]
- Percent rescue of CD8+ T-cell proliferation at 100 nM mPVR based assay (mPVR): 56.9%

Compound: CC(O)[C@H](N)c1noc([C@@H](N)Cc2ccccc2)n1 (stereo partly shown) [Compound 16]
- Percent rescue of CD8+ T-cell proliferation mPVR based assay (mPVR): 72 (@ 1000 nM) %

Compound: CC(O)[C@H](N)c1noc([C@H](Cc2ccc(O)cc2)NC(=O)N2CCC[C@H]2C(=O)O)n1 (stereo partly shown) [Compound 19]
- tumor growth inhibition ([1]; 10 mg/kg qd oral): 42%
- tumor growth inhibition ([1]; 30 mg/kg qd oral, statistically significant compared to vehicle): 53%
- activation at 0.1 µM (PD-L1): 99%
- Percent rescue of CD8+ T-cell proliferation at 100 nM mPVR based assay (mPVR): 72%

Compound: CC(O)[C@H](N)c1noc([C@H](Cc2ccccc2)NC(=O)N2CCC[C@H]2C(=O)O)n1 (stereo partly shown) [Compound 20]
- activation at 0.1 µM (PD-L1): 35%
